Laboratory results published in the NIST ThermoML archive (doi:10.1007/s10765-012-1373-z).

Details: Liquid; for mass density: Buoyancy - hydrostatic balance; for viscosity: Falling or rolling sphere viscometry

CCCCCCC [heptane]
Details | mass density [kg/m3] | viscosity [mPa·s]
298.15 K, 98 kPa | 679.99 | 0.396
298.15 K, 24510 kPa | 702.85 | 0.4923
298.15 K, 49030 kPa | 718.61 | 0.602
298.15 K, 98060 kPa | 741.52 | 0.8489
298.15 K, 147100 kPa | 760.47 | 1.137
298.15 K, 196130 kPa | 780.16 | 1.493
298.15 K, 245160 kPa | 792.15 | 1.91
303.15 K, 98 kPa | 674.98 | 0.373
303.15 K, 24510 kPa | 697.11 | 0.4737
303.15 K, 49030 kPa | 713.79 | 0.5696
303.15 K, 98060 kPa | 739.05 | 0.8037
303.15 K, 147100 kPa | 759.49 | 1.071
303.15 K, 196130 kPa | 777.85 | 1.389
303.15 K, 245160 kPa | 789.56 | 1.744
323.11 K, 49030 kPa | 701.18 | 0.4816
323.13 K, 24510 kPa | 680.94 | 0.3966
323.2 K, 98060 kPa | 731.08 | 0.6613
323.2 K, 147100 kPa | 749.97 | 0.87
323.21 K, 196130 kPa | 768.38 | 1.112
323.25 K, 98 kPa | 659.16 | 0.3107
323.25 K, 245160 kPa | 783.33 | 1.378
362.8 K, 147100 kPa | 731.67 | 0.6488
362.83 K, 98060 kPa | 709.5 | 0.4956
362.85 K, 49030 kPa | 675.9 | 0.3626
362.87 K, 196130 kPa | 752.22 | 0.8089
362.92 K, 98 kPa | 622.63 | 0.2146
362.98 K, 245160 kPa | 769.76 | 0.9926
363.07 K, 24510 kPa | 654.31 | 0.2937
391.93 K, 147100 kPa | 717.73 | 0.531
392 K, 196130 kPa | 739.92 | 0.6621
392 K, 245160 kPa | 759.27 | 0.8047
392.04 K, 98060 kPa | 696.22 | 0.4119
393.01 K, 24510 kPa | 634.69 | 0.2366
393.14 K, 49030 kPa | 657.93 | 0.2965
422.17 K, 196130 kPa | 729 | 0.5591
422.24 K, 98060 kPa | 679.62 | 0.3479
422.26 K, 147100 kPa | 704.75 | 0.4464
422.58 K, 24510 kPa | 611.28 | 0.1951
422.6 K, 49030 kPa | 638.89 | 0.2476
423.04 K, 245160 kPa | 748.46 | 0.6699
452.91 K, 245160 kPa | 734.45 | 0.577
453.04 K, 196130 kPa | 716.18 | 0.4784
453.1 K, 147100 kPa | 689.71 | 0.3883
453.16 K, 98060 kPa | 666.38 | 0.3007
453.24 K, 49030 kPa | 621.56 | 0.2134
453.4 K, 24510 kPa | 589.05 | 0.1668
470.1 K, 49030 kPa | 611.78 | 0.2021
470.19 K, 24510 kPa | 574.55 | 0.1568
470.19 K, 98060 kPa | 658.7 | 0.2858
470.19 K, 147100 kPa | 685.13 | 0.3672
470.57 K, 196130 kPa | 709.79 | 0.4549
470.61 K, 245160 kPa | 729.17 | 0.5475
